Holding throughout (assay type): biochemical
Assay [1] concerns the target T1, Human factor Xa (Homo sapiens, UniProt P00742).
T1 construct: purchased Enzyme Research Laboratories, South Bend Ind
Kind of assay: Xa assay (chromogenic substrate S-2765). The following applies: reported only as less than or greater than 30 uM; read-out: Factor Xa (II) IC50. How it is done:
Human factor Xa (0.3 nM) and 0.15 mM -a-Benzyloxycarbonyl-D-arginyl-L-glycyl-L-arginine-p-nitroaniline-dihydrochloride (S-2765) are added to a 96-well assay plate containing either inhibitor or buffer (50 mM Tris-HCl, pH 8.0, 100 mM NaCl, 0.1% BSA). The reaction, in a final volume of 100 ul is measured immediately at 405 nm to determine background absorbance. The plate is incubated at room temperature for 60 min, at which time the rate of hydrolysis of the substrate is measured by monitoring the reaction at 405 nm for the release of p-nitroaniline. Percent inhibition of Xa activity is calculated from OD405 nm value from the experimental and control sample.
Recombinant soluble TF, consisting of amino acids 1-219 of the mature protein sequence was expressed in E. coli and purified using a Mono Q Sepharose FPLC. Recombinant human VIIa was purchased from American Diagnostica, Greenwich CT and chromogenic substrate N-methylsulfonyl-D-phe-gly-arg-p-nitroaniline was prepared by American Peptide Company, Inc., Sunnyvale, Calif. Factor Xa was obtained from Enzyme Research Laboratories, South Bend Ind., thrombin from Calbiochem, La Jolla, Calif., and trypsin and L-BAPNA from Sigma, St. Louis Mo. The chromogenic substrates S-2765 and S-2238 were purchased from Chromogenix, Sweden.

Assay [2] concerns the target T2, Human thrombin (Homo sapiens, UniProt P00734).
T2 construct: converts prothrombin (II) to thrombin (IIa); purchased Calbiochem, La Jolla, Calif
Kind of assay: Thrombin assay (chromogenic substrate). As to conditions: reported only as less than or greater than 30 uM; read-out: Thrombin (II) IC50. Here is the method: Percent inhibition of thrombin activity is calculated from OD405 nm value from the experimental and control sample.
(§1) Recombinant human VIIa was purchased from American Diagnostica, Greenwich CT and chromogenic substrate N-methylsulfonyl-D-phe-gly-arg-p-nitroaniline was prepared by American Peptide Company, Inc., Sunnyvale, Calif. Factor Xa was obtained from Enzyme Research Laboratories, South Bend Ind., thrombin from Calbiochem, La Jolla, Calif., and trypsin and L-BAPNA from Sigma, St. Louis Mo.

Assay [3] addresses T3, recombinant soluble tissue factor and recombinant human factor VIIa (TF-VIIa) (Homo sapiens, UniProt P08709).
T3 construct: conversion of coagulation factor VII to VIIa by factor Xa; purchased American Diagnostica, Greenwich CT; host or cells: soluble TF made in house in E. coli
Kind of assay: TF-VIIa assay (chromogenic substrate hydrolysis). As to conditions: reported only as less than or greater than 0.1 uM. Here is the method: In this assay 100 nM recombinant soluble tissue factor and 2 nM recombinant human factor VIIa are added to a 96-well assay plate containing 0.4 mM of the substrate, N-methylsulfonyl-D-phe-gly-arg-p-nitroaniline and either inhibitor or buffer (5 mM CaCl2, 50 mM Tris-HCl, pH 8.0, 100 mM NaCl, 0.1% BSA). […] Percent inhibition of TF-VIIa activity is calculated from OD405 nm value from the experimental and control sample.
as §1

The structures appear in SMILES notation. Bounds are passed on as bounds.

T1 sequence (P00742 235-488 limits assumed): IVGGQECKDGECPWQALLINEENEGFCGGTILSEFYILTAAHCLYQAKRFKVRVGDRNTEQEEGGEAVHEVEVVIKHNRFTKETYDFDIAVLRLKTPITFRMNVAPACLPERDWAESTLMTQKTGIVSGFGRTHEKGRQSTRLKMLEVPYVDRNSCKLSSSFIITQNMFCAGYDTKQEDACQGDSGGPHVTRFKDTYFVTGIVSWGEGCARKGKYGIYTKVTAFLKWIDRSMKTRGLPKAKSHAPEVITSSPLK
T1 sequence (P00742 41-179 limits assumed): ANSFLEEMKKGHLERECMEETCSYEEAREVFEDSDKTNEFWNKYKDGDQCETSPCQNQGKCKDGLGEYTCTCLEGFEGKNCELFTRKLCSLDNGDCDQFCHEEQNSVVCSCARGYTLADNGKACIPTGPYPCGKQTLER
T3 sequence (P08709 213-466 limits assumed): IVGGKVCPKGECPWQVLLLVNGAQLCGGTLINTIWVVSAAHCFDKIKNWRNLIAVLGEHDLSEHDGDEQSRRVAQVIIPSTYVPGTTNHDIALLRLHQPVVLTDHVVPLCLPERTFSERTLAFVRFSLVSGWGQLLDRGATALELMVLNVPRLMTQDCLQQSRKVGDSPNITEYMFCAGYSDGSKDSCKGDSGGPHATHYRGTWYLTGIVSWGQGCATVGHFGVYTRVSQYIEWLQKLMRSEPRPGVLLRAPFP
T3 sequence (P08709 61-212 limits assumed): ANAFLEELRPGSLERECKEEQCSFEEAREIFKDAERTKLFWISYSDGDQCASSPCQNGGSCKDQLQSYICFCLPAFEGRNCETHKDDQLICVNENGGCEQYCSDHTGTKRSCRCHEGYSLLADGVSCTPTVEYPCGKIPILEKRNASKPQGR
T3 sequence (P13726 33-251 partner limits assumed): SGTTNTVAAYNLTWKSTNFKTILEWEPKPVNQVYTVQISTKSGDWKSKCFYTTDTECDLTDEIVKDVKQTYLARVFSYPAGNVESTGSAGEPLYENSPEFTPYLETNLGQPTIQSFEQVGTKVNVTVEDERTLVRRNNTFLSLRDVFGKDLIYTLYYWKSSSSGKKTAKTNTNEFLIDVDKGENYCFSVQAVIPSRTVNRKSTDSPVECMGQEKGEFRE

With `CC(C)Nc1nc(Cl)c(-c2cc(N)ccc2SCc2ccccc2)n(CC(=O)NCc2ccc(C(=N)N)cc2)c1=O` [Example 31], the IC50 was greater than 30 µM in assay [1], greater than 30 µM in assay [2] and greater than 0.1 µM in assay [3].
On to `CC(C)Nc1ncc(-c2cc(N)cc(C(=O)NCC(=O)O)c2)n(CC(=O)NCc2ccc(C(=N)N)cc2)c1=O` [Example 32], for which the IC50 in assay [1] is greater than 30 µM; in assay [2], greater than 30 µM; in assay [3], greater than 0.1 µM.
As for `CC(C)Nc1ncc(-c2cc(N)cc(C(=O)NCCc3ccc(F)cc3)c2)n(CC(=O)NCc2ccc(C(=N)N)cc2)c1=O` [Example 33], the IC50 in assay [1] was greater than 30 µM; in assay [2] it was greater than 30 µM; in assay [3], less than 0.1 µM.
On to `CNc1ncc(-c2cc(N)cc(C(=O)OC)c2)n(CC(=O)NCc2ccc(C(=N)N)cc2)c1=O` [Example 36], for which the IC50 in assay [1] was greater than 30 µM; in assay [2], greater than 30 µM; in assay [3], greater than 0.1 µM.
Regarding `CNc1ncc(-c2cc(N)cc(C(=O)O)c2)n(CC(=O)NCc2ccc(C(=N)N)cc2)c1=O` [Example 37], the IC50 was greater than 30 µM in assay [1], greater than 30 µM in assay [2] and greater than 0.1 µM in assay [3].
Consider `COC(=O)c1cc(N)cc(-c2cnc(NC(C)C)c(=O)n2CC(=O)NCc2c(F)c(F)c(C(=N)N)c(F)c2F)c1` [Example 48], for which the results for the IC50 in assay [1], in assay [2] and in assay [3] were greater than 30 µM, greater than 30 µM and greater than 0.1 µM, respectively.
For `CC(C)Nc1ncc(-c2cc(N)cc(F)c2)n(CC(=O)NCc2ccc(C(=N)N)cc2)c1=O` [Example 52], the values for the IC50 in assay [1], in assay [2] and in assay [3] were greater than 30 µM, less than 30 µM and less than 0.1 µM, respectively.
The matching figures for `CC(C)NC(=O)c1cc(N)cc(-c2cnc(NC(C)C)c(=O)n2CC(=O)NCc2ccc(C(=N)N)cc2)c1` [Example 60]: greater than 30 µM, less than 30 µM and less than 0.1 µM.
The matching figures for `CC(C)Nc1ncc(-c2cc(N)cc(-c3ccccc3)c2)n(CC(=O)NCc2ccc(C(=N)N)cc2)c1=O` [Example 69, 2-[6-(5-amino-1,1′-biphenyl-3-yl)-3-(isopropylamino)-2-oxopyrazin-1 (2H)-yl]-N-{4-[amino(imino)methyl]benzyl}acetamide]: greater than 30 µM, greater than 30 µM and less than 0.1 µM.
In the same order, the values of `CC(C)Nc1ncc(-c2cc(N)cc(C(F)(F)F)c2)n(CC(=O)NCc2ccc(C(=N)N)c(O)c2F)c1=O` [Example 97] are greater than 30 µM, greater than 30 µM and greater than 0.1 µM.
As to `CC(C)Nc1ncc(-c2cc(N)cc(C(F)(F)F)c2)n(CC(=O)NCc2c(F)c(O)c(C(=N)N)c(F)c2F)c1=O` [Example 126], the IC50 in assay [1] is greater than 30 µM; in assay [2] it was less than 30 µM; in assay [3] it was less than 0.1 µM.
In the same order, the values of `CC(C)Nc1ncc(-c2cc(N)cc(NC(=O)C(C)(C)C)c2)n(CC(=O)NCc2ccc(C(=N)N)cc2)c1=O` [Example 132] are greater than 30 µM, less than 30 µM and less than 0.1 µM.
For the compound `CCCCCC(C)C(=O)Nc1cc(N)cc(-c2cnc(NC(C)C)c(=O)n2CC(=O)NCc2ccc(C(=N)N)cc2)c1` (stereo not drawn) [Example 138], the figures for the IC50 in assay [1], in assay [2] and in assay [3] were greater than 30 µM, less than 30 µM and less than 0.1 µM, respectively.
The matching figures for `COc1cc(N)cc(-c2cnc(NC(C)C)c(=O)n2CC(=O)NCc2cc(O)c(C(=N)N)c(F)c2)c1` [Example 168]: greater than 30 µM, greater than 30 µM and greater than 0.1 µM.
In the same order, the values of `CC[C@H](C)NC(=O)c1cc(N)cc(-c2cnc(NC(C)C)c(=O)n2CC(=O)NCc2ccc(C(=N)N)c(O)c2F)c1` [Example 173] are greater than 30 µM, greater than 30 µM and less than 0.1 µM.
The matching figures for `CC(C)Nc1ncc(-c2cc(N)cc(O)c2)n(CC(=O)NCc2cc(O)c(C(=N)N)c(F)c2)c1=O` [Example 180]: greater than 30 µM, greater than 30 µM and greater than 0.1 µM.
Consider `CC[C@H](C)NC(=O)c1cc(N)cc(-c2cnc(NC3CC3)c(=O)n2CC(=O)NCc2ccc(C(=N)N)cc2)c1` [Example 183], for which the IC50 was greater than 30 µM in assay [1], less than 30 µM in assay [2] and less than 0.1 µM in assay [3].
The matching figures for `CC[C@H](C)NC(=O)c1cc(N)cc(-c2cnc(NC(C)C)c(=O)n2CC(=O)NCc2c(OC)cc(C(=N)N)cc2OC)c1` [Example 196]: greater than 30 µM, greater than 30 µM and greater than 0.1 µM.
In the same order, the values of `CC[C@@H](C)NC(=O)c1cc(N)cc(-c2cnc(NC(C)C)c(=O)n2CC(=O)NCc2c(OC)cc(C(=N)N)cc2OC)c1` [Example 197] are greater than 30 µM, greater than 30 µM and greater than 0.1 µM.
Turning to `COCCOCCOCCOC(=O)c1cc(N)cc(-c2cnc(NC(C)C)c(=O)n2CC(=O)NCc2ccc(C(=N)N)cc2)c1` [Example 200], the IC50 in assay [1] is greater than 30 µM; in assay [2], greater than 30 µM; in assay [3], less than 0.1 µM.
`COCCOCCOCCOCCOCCOCCOC(=O)c1cc(N)cc(-c2cnc(NC(C)C)c(=O)n2CC(=O)NCc2ccc(C(=N)N)cc2)c1` [Example 201]: the IC50 in assay [1] was greater than 30 µM; in assay [2], greater than 30 µM; in assay [3], less than 0.1 µM.
Turning to `CC[C@H](C)NC(=O)c1cc(N)cc(-c2cnc(N[C@@H](C)CO)c(=O)n2CC(=O)NCc2ccc(C(=N)N)cc2)c1` [Example 208], the half-maximal inhibitory concentration (IC50) is greater than 30 µM in assay [1], less than 30 µM in assay [2] and less than 0.1 µM in assay [3].
`CC(C)Nc1ncc(-c2cc(N)cc(OC(C)C(=O)O)c2)n(CC(=O)NCc2ccc(C(=N)N)cc2)c1=O` (stereo not drawn) [Example 226]: the IC50 in assay [1] is greater than 30 µM; in assay [2] it was greater than 30 µM; in assay [3], less than 0.1 µM.
On to `CC[C@H](C)NC(=O)c1cc(N)cc(-c2cnc(NC(C)C)c(=O)n2CC(=O)NCc2c(O)cc(C(=N)N)cc2OCc2ccccc2)c1` [Example 242], for which the 50% inhibitory concentration (IC50) in assay [1] was greater than 30 µM; in assay [2] it was greater than 30 µM; in assay [3] it was less than 0.1 µM.
For `CC[C@@H](C)NC(=O)c1cc(N)cc(-c2cnc(NC(C)(C)C)c(=O)n2CC(=O)NCc2ccc(C(=N)N)cc2)c1` [Example 256, 3-amino-5-[1-[2-({4-[amino(imino)methyl]benzyl}amino)-2-oxoethyl]-5-(tert-butylamino)-6-oxo-1,6-dihydropyrazin-2-yl]-N-[(lR)-1-methylpropyl]benzamide bis(trifluoroacetate)], the values for the IC50 in assay [1], in assay [2] and in assay [3] were greater than 30 µM, less than 30 µM and less than 0.1 µM, respectively.
For `CC[C@H](C)NC(=O)c1cc(N)cc(-c2cnc(NC)c(=O)n2CC(=O)NCc2ccc(C(=N)N)cc2)c1` [Example 257], the half-maximal inhibitory concentration (IC50) in assay [1] was greater than 30 µM; in assay [2], greater than 30 µM; in assay [3], less than 0.1 µM.
For `CC[C@@H](C)NC(=O)c1cc(N)cc(-c2cnc(NC3CC3)c(=O)n2CC(=O)NCc2ccc(C(=N)N)cc2)c1` [Example 258], the IC50 is greater than 30 µM in assay [1], less than 30 µM in assay [2] and less than 0.1 µM in assay [3].
